Measured values taken from DBAASP.
≈ marks a conversion by molar mass, not a printed value. One block for each compound: values may come before it.

Assays:
Assay in all cases: ≥ marks a high value that may be exact or a test limit, other limits are often not marked, values filed in µg/mL are converted to µM
Trypanosoma cruzi = test system: Trypanosoma cruzi
[1] = test system: Achromobacter xylosoxidans
Candida albicans = test system: Candida albicans
Escherichia coli UB1005 = test system: Escherichia coli UB1005
[2] = test system: Pseudomonas aeruginosa M1251
[3] = test system: Pseudomonas aeruginosa M1426
[4] = test system: Pseudomonas aeruginosa M76
[5] = test system: Pseudomonas aeruginosa M917
[6] = test system: Pseudomonas aeruginosa PAO1
[7] = test system: Pseudomonas aeruginosa R70
Pseudomonas fluorescens = test system: Pseudomonas fluorescens
Ralstonia pickettii = test system: Ralstonia pickettii
[8] = test system: Salmonella enterica serovar Typhimurium
Staphylococcus aureus = test system: Staphylococcus aureus
[9] = test system: Stenotrophomonas maltophilia
[10] = test system: Pseudomonas aeruginosa H374
[11] = test system: Pseudomonas aeruginosa H547
[12] = test system: Pseudomonas aeruginosa H744
[13] = test system: Pseudomonas aeruginosa K799
[14] = test system: Pseudomonas aeruginosa Z61
[15] = test system: Salmonella enterica subsp. enterica serovar Typhimurium ATCC 14028s
[16] = test system: Candida albicans ATCC 2002
Citrobacter koseri = test system: Citrobacter koseri
[17] = test system: Escherichia coli ATCC 25922
Escherichia coli BL21 = test system: Escherichia coli BL21
Escherichia coli INV-a = test system: Escherichia coli INV-a
Escherichia coli JM109 = test system: Escherichia coli JM109
[18] = test system: Klebsiella pneumoniae CCRC 10694
[19] = test system: Lactococcus lactis MG1363
Pseudomonas aeruginosa = test system: Pseudomonas aeruginosa
Salmonella enterica = test system: Salmonella enterica
[20] = test system: Salmonella typhimurium CCRC 12947
[21] = test system: Staphylococcus aureus ATCC 2592
[22] = test system: Staphylococcus aureus CCRC 12652
[23] = test system: Staphylococcus aureus CCRC 15211
Staphylococcus xylosus = test system: Staphylococcus xylosus
[24] = test system: Streptococcus alactolyticus
[25] = test system: Vibrio parahaemolyticus CCRC 10806
Aspergillus fumigatus = test system: Aspergillus fumigatus
Bibersteinia trehalosi = test system: Bibersteinia trehalosi
[26] = test system: Corynebacterium pseudotuberculosis ATCC 19410
Klebsiella pneumoniae = test system: Klebsiella pneumoniae
[27] = test system: Mannheimia haemolytica Serovar 1
[28] = test system: Mannheimia haemolytica Serovar 2
[29] = test system: Mannheimia haemolytica Serovar 6
Pasteurella multocida = test system: Pasteurella multocida
[30] = test system: Salmonella enterica subsp. arizonae

MIC (Trypanosoma cruzi): 15.1 µM (≈ 30 µg/mL)
SMILES: CC[C@H](C)[C@H](NC(=O)[C@H](C)NC(=O)[C@H](CO)NC(=O)[C@@H](NC(=O)[C@H](C)NC(=O)[C@H](CC(N)=O)NC(=O)[C@@H](NC(=O)[C@H](C)NC(=O)[C@H](Cc1cnc[nH]1)NC(=O)[C@@H]1CCCN1C(=O)[C@@H](NC(=O)[C@H](CC(C)C)NC(=O)[C@H](CO)NC(=O)[C@H](CC(C)C)NC(=O)[C@@H](N)Cc1ccccc1)[C@@H](C)CC)[C@@H](C)CC)C(C)C)C(=O)N[C@@H](C)C(=O)N[C@@H](CCCCN)C(=O)N[C@@H](Cc1cnc[nH]1)C(=O)N[C@@H](CO)C(N)=O [FLSLIPHAINAVSAIAKHS]

SMILES: CC(C)C[C@H](NC(=O)[C@H](C)NC(=O)[C@H](CCCCN)NC(=O)[C@H](CCCCN)NC(=O)[C@H](C)NC(=O)[C@H](CC(C)C)NC(=O)[C@H](CCCCN)NC(=O)[C@H](CCCCN)NC(=O)[C@H](CC(C)C)NC(=O)[C@H](CCCCN)NC(=O)[C@H](CCCCN)NC(=O)[C@H](CC(C)C)NC(=O)[C@H](CC(C)C)NC(=O)[C@H](CCCCN)NC(=O)[C@H](CCCCN)NC(=O)[C@H](CC(C)C)NC(=O)[C@H](C)NC(=O)[C@H](CCCCN)NC(=O)[C@H](CC(C)C)NC(=O)[C@H](C)NC(=O)[C@H](CC(C)C)NC(=O)[C@H](C)NC(=O)[C@@H](N)Cc1ccccc1)C(N)=O [FALALKALKKLLKKLKKLAKKAL]
MIC [1]: 12.4 µM (≈ 32 µg/mL)
MIC (Candida albicans): 24.8 µM (≈ 64 µg/mL)
MIC (Escherichia coli UB1005): 1.55 µM (≈ 4 µg/mL)
MIC [2]: 6.2 µM (≈ 16 µg/mL)
MIC [3]: 6.2 µM (≈ 16 µg/mL)
MIC [4]: 12.4 µM (≈ 32 µg/mL)
MIC [5]: ≥ 49.6 µM
MIC [6]: 3.1 µM (≈ 8 µg/mL)
MIC [7]: 6.2 µM (≈ 16 µg/mL)
MIC (Pseudomonas fluorescens): 3.1 µM (≈ 8 µg/mL)
MIC (Ralstonia pickettii): 1.55 µM (≈ 4 µg/mL)
MIC [8]: 3.1 µM (≈ 8 µg/mL)
MIC (Staphylococcus aureus): 3.1 µM (≈ 8 µg/mL)
MIC [9]: 1.55 µM (≈ 4 µg/mL)

MIC (Escherichia coli UB1005): 4.75 µM (≈ 11 µg/mL)
MIC [10]: 27.6 µM (≈ 64 µg/mL)
MIC [11]: 27.6 µM (≈ 64 µg/mL)
MIC [12]: 27.6 µM (≈ 64 µg/mL)
MIC [13]: 27.6 µM (≈ 64 µg/mL)
MIC [14]: 27.6 µM (≈ 64 µg/mL)
MIC [15]: 27.6 µM (≈ 64 µg/mL)
SMILES: CC[C@H](C)[C@H](NC(=O)[C@H](Cc1ccccc1)NC(=O)[C@H](CO)NC(=O)[C@H](CCCCN)NC(=O)[C@H](Cc1ccccc1)NC(=O)[C@@H](NC(=O)[C@H](CCCCN)NC(=O)[C@@H](N)Cc1c[nH]c2ccccc12)C(C)C)C(=O)N[C@@H](CCCCN)C(=O)N[C@@H](CCCCN)C(=O)N[C@@H](C)C(=O)N[C@@H](CO)C(=O)N[C@@H](CO)C(=O)N[C@@H](Cc1ccccc1)C(=O)N[C@@H](C)C(=O)N[C@@H](CCC(N)=O)C(=O)N[C@@H](CO)C(=O)N[C@H](C(=O)N[C@@H](CC(C)C)C(=O)N[C@@H](CC(=O)O)C(=O)O)C(C)C [WKVFKSFIKKASSFAQSVLD]

SMILES: CC[C@H](C)[C@H](N)C(=O)N[C@@H](CC(N)=O)C(=O)N[C@@H](Cc1c[nH]c2ccccc12)C(=O)N[C@@H](CCCCN)C(=O)NCC(=O)N[C@H](C(=O)N[C@@H](C)C(=O)N[C@@H](C)C(=O)N[C@@H](CCSC)C(=O)N[C@@H](C)C(=O)N[C@@H](CCCCN)C(=O)N[C@@H](CCCCN)C(=O)N[C@@H](CC(C)C)C(=O)N[C@@H](CC(C)C)C(N)=O)[C@@H](C)CC [INWKGIAAMAKKLL]
MIC [16]: 2.38 µM (≈ 3.7 µg/mL)
MIC (Citrobacter koseri): 2.57 µM (≈ 4 µg/mL)
MIC [17]: 4.82 µM (≈ 7.5 µg/mL)
MIC (Escherichia coli BL21): 5.14 µM (≈ 8 µg/mL)
MIC (Escherichia coli INV-a): 8 µM (≈ 12.4 µg/mL)
MIC (Escherichia coli JM109): 5.14 µM (≈ 8 µg/mL)
MIC [18]: ≥ 41.1 µM
MIC [19]: 2.5 µM (≈ 3.89 µg/mL)
MIC (Pseudomonas aeruginosa): 164 µM (≈ 256 µg/mL)
MIC (Salmonella enterica): 20.6 µM (≈ 32 µg/mL)
MIC [20]: 20.6 µM (≈ 32 µg/mL)
MIC [21]: 2.38 µM (≈ 3.7 µg/mL)
MIC [22]: 20.6 µM (≈ 32 µg/mL)
MIC [23]: ≥ 41.1 µM
MIC (Staphylococcus xylosus): 1.93 µM (≈ 3 µg/mL)
MIC [24]: 10.3 µM (≈ 16 µg/mL)
MIC [25]: 20.6 µM (≈ 32 µg/mL)

MIC (Aspergillus fumigatus): 3.44 µM (≈ 5.8 µg/mL)
MIC (Bibersteinia trehalosi): 11.9 µM (≈ 20 µg/mL)
MIC [26]: 11.9 µM (≈ 20 µg/mL)
MIC (Klebsiella pneumoniae): > 11.9 µM
MIC (Pasteurella multocida): 11.9 µM (≈ 20 µg/mL)
MIC [6]: 0.356 µM (≈ 0.6 µg/mL)
MIC [30]: 11.9 µM (≈ 20 µg/mL)
MIC (Staphylococcus aureus): > 11.9 µM
SMILES: CC[C@H](C)[C@H](NC(=O)[C@H](Cc1cnc[nH]1)NC(=O)[C@@H](NC(=O)[C@@H](NC(=O)[C@H](CCCCN)NC(=O)[C@H](CCCN=C(N)N)NC(=O)[C@@H](NC(=O)[C@@H](NC(=O)[C@H](CCCN=C(N)N)NC(=O)[C@@H](N)CCCN=C(N)N)[C@@H](C)CC)[C@@H](C)CC)[C@@H](C)CC)[C@@H](C)CC)C(=O)N[C@H](C(=O)N[C@@H](CCCCN)C(=O)N[C@@H](CCCCN)C(N)=O)[C@@H](C)CC [RRIIRKIIHIIKK]
MIC [27]: 4.92 µM (≈ 8.3 µg/mL)
MIC [28]: 2.73 µM (≈ 4.6 µg/mL)
MIC [29]: 2.49 µM (≈ 4.2 µg/mL)
